From patent US12024531B2, “Immunoproteasome inhibitors” (Principia Biopharma Inc., priority 2017, dated 2024)
pIC50: −log10 of the molar value.

Columns and labels:
Assay type in all cases: biochemical
[1] = biological target: immunoproteasome LMP2 subunit (Homo sapiens, UniProt P28065); assay: Caliper-based proteasome enzymatic activity assay, LMP2; conditions: human recombinant immunoproteasome 0.3 nM, FAM peptide substrate 1 μM, rt 2 h
[2] = biological target: constitutive proteasome β5c subunit (Homo sapiens, UniProt P28074); assay: Caliper-based proteasome enzymatic activity assay, β5c; conditions: human recombinant constitutive proteasome 0.3 nM, FAM peptide substrate 1 μM, rt 3 h
[3] = biological target: immunoproteasome LMP7/B5i subunit (Homo sapiens, UniProt P28062); assay: Caliper-based proteasome enzymatic activity assay, LMP7; conditions: human recombinant immunoproteasome 0.3 nM, FAM peptide substrate 1 μM, rt 3 h

Structure (SMILES) | pIC50 [1] | pIC50 [2] | pIC50 [3]
CC(C)N(C(=O)C(C#N)=Cc1cccc(CCOC(=O)N[C@@H](Cc2ccccc2)B(O)O)c1)C(C)C (single isomer, unassigned) [Example 74] | 5.56 | < 5.30 | 7.57
CC(C)N(C(=O)C(C#N)=Cc1cccc(CCOC(=O)N[C@@H](Cc2ccccc2)B(O)O)c1)C(C)C (single isomer, unassigned) [Example 75] | 5.60 | 5.52 | 8.85
CCN(CC)C(=O)C(C#N)=Cc1cccc(OCCC(=O)N[C@@H](Cc2ccccc2)B(O)O)c1 [Example 7, (R)-1-(3-(3-(2-cyano-3-(diethylamino)-3-oxoprop-1-enyl)phenoxy)propanamido)-2-phenylethylboronic Acid] | 6.30 | 7.22 | 8.30
N#CC(=Cc1cccc(OCCC(=O)N[C@@H](Cc2ccccc2)B(O)O)c1)C(=O)N1CCOCC1 [Example 9, (R)-1-(3-(3-(2-cyano-3-morpholino-3-oxoprop-1-enyl)phenoxy)propanamido)-2-phenylethylboronic Acid] | 6.09 | 7.00 | 8.10
N#CC(=Cc1cccc(OCCC(=O)N[C@@H](Cc2ccccc2)B(O)O)c1)C(=O)NC1CCOCC1 [Example 10, (R)-1-(3-(3-(2-cyano-3-oxo-3-(tetrahydro-2H-pyran-4-ylamino)prop-1-enyl)phenoxy)propanamido)-2-phenylethylboronic Acid] | 6.01 | 7.13 | 8.30
CC(C)(C)NC(=O)C(C#N)=Cc1cccc(COC(=O)N[C@@H](Cc2ccccc2)B(O)O)c1 [Example 16, (R)-(1-((((3-(3-(tert-butylamino)-2-cyano-3-oxoprop-1-en-1-yl)benzyl)oxy)carbonyl)amino)-2-phenylethyl)boronic Acid] | 5.45 | 5.43 | 7.48
N#CC(=Cc1cccc(OCCC(=O)N[C@@H](Cc2coc3ccccc23)B(O)O)c1)c1ccccn1 [Example 23, (R)-(2-(benzofuran-3-yl)-1-(3-(3-(2-cyano-2-(pyridin-2-yl)vinyl)phenoxy)propanamido)ethyl)boronic Acid] | < 5.30 | 8.10 | 9.10
CN(C)C(=O)C(C#N)=Cc1cccc(CCCC(=O)N[C@@H](Cc2ccccc2)B(O)O)c1 [Example 24, (R)-(1-(4-(3-(2-cyano-3-(dimethylamino)-3-oxoprop-1-en-1-yl)phenyl)butanamido)-2-phenylethyl)boronic Acid] | 5.72 | 5.71 | 7.92
N#CC(=Cc1cccc(CCCC(=O)N[C@@H](Cc2ccccc2)B(O)O)c1)n1cncn1 [Example 25, (R)-(1-(4-(3-(2-cyano-2-(1H-1,2,4-triazol-1-yl)vinyl)phenyl)butanamido)-2-phenylethyl)boronic Acid] | 5.52 | 5.38 | 8.10
COc1ccc(C=C(C#N)C(=O)N(C)C)cc1OCCC(=O)N[C@@H](Cc1ccccc1)B(O)O [Example 26, (R)-(1-(3-(5-(2-cyano-3-(dimethylamino)-3-oxoprop-1-en-1-yl)-2-methoxyphenoxy)propanamido)-2-phenylethyl)boronic Acid] | 6.51 | 7.47 | 8.40
CCNC(=O)C(C#N)=Cc1cccc(OCCC(=O)N[C@@H](Cc2ccccc2)B(O)O)c1 [Example 31, (R)-(1-(3-(3-(2-cyano-3-(ethylamino)-3-oxoprop-1-en-1-yl)phenoxy)propanamido)-2-phenylethyl)boronic Acid] | 6.57 | 6.92 | 8.40
N#CC(=Cc1cccc(OCCC(=O)N[C@@H](Cc2ccccc2)B(O)O)c1)C(=O)N1CCN(C2COC2)CC1 [Example 32, (R)-(1-(3-(3-(2-cyano-3-(4-(oxetan-3-yl)piperazin-1-yl)-3-oxoprop-1-en-1-yl)phenoxy)propanamido)-2-phenylethyl)boronic Acid] | 6.74 | 7.22 | 8.40
N#CC(=Cc1cccc(CCOC(=O)N[C@@H](Cc2ccccc2)B(O)O)c1)c1ccccn1 [Example 36, (R)-(1-(((3-(2-cyano-2-(pyridin-2-yl)vinyl)phenethoxy)carbonyl)amino)-2-phenylethyl)boronic Acid] | 5.45 | 6.49 | 8.10
CN(C)C(=O)C(C#N)=Cc1cccc(OCCC(=O)N[C@@H](Cc2ccccc2)B(O)O)c1F [Example 37, (R)-(1-(3-(3-(2-cyano-3-(dimethylamino)-3-oxoprop-1-en-1-yl)-2-fluorophenoxy)propanamido)-2-phenylethyl)boronic Acid] | 6.65 | 6.31 | 7.77
CN(C)C(=O)C(C#N)=Cc1ccc(Cl)c(OCCC(=O)N[C@@H](Cc2ccccc2)B(O)O)c1Cl [Example 38, (R)-(1-(3-(2,6-dichloro-3-(2-cyano-3-(dimethylamino)-3-oxoprop-1-en-1-yl)phenoxy)propanamido)-2-phenylethyl)boronic Acid] | 6.65 | 6.79 | 8.14
N#CC(=Cc1ccc(Cl)c(OCCC(=O)N[C@@H](Cc2ccccc2)B(O)O)c1Cl)c1ccccn1 [Example 39, (R)-(1-(3-(2,6-dichloro-3-(2-cyano-2-(pyridin-2-yl)vinyl)phenoxy)propanamido)-2-phenylethyl)boronic Acid] | 6.49 | 6.87 | 7.85
CN(C)C(=O)C(C#N)=Cc1cc(F)cc(OCCC(=O)N[C@@H](Cc2ccccc2)B(O)O)c1 [Example 41, (R)-(1-(3-(3-(2-cyano-3-(dimethylamino)-3-oxoprop-1-en-1-yl)-5-fluorophenoxy)propanamido)-2-phenylethyl)boronic Acid] | 6.49 | 6.75 | 8.39
CN(C)C(=O)C(C#N)=Cc1cc(OCCC(=O)N[C@@H](Cc2ccccc2)B(O)O)ccc1F [Example 42, (R)-(1-(3-(3-(2-cyano-3-(dimethylamino)-3-oxoprop-1-en-1-yl)-4-fluorophenoxy)propanamido)-2-phenylethyl)boronic Acid] | 6.41 | 6.72 | 8.22

Stronger by pIC50 [1], values ahead:

pIC50 [1] | pIC50 [2] | pIC50 [3] | Structure (SMILES)
7.80 | 8.15 | 9.00 | CC(C)(C)NC(=O)C(C#N)=Cc1cccc(CC[C@H](NC(=O)c2cc(Cl)ccc2Cl)C(=O)N[C@@H](Cc2ccccc2)B(O)O)c1 [Example 4, (R)-1-((S)-4-(3-(3-(tert-butylamino)-2-cyano-3-oxoprop-1-enyl)phenyl)-2-(2,5-dichlorobenzamido)butanamido)-2-phenylethylboronic Acid]
6.85 | 7.02 | 8.52 | CN(C)C(=O)C(C#N)=Cc1cccc(OCCC(=O)N[C@@H](Cc2ccccc2)B(O)O)c1 [Example 5, (R)-1-(3-(3-(2-cyano-3-(dimethylamino)-3-oxoprop-1-enyl)phenoxy)propanamido)-2-phenylethylboronic Acid]
7.00 | 7.57 | 8.52 | CN(C(=O)C(C#N)=Cc1cccc(OCCC(=O)N[C@@H](Cc2ccccc2)B(O)O)c1)c1ccccc1 [Example 22, (R)-(1-(3-(3-(2-cyano-3-(methyl(phenyl)amino)-3-oxoprop-1-en-1-yl)phenoxy)propanamido)-2-phenylethyl)boronic Acid]
6.80 | 7.60 | 8.52 | CN(C)C(=O)C(C#N)=Cc1ccc(F)c(OCCC(=O)N[C@@H](Cc2ccccc2)B(O)O)c1 [Example 27, (R)-(1-(3-(5-(2-cyano-3-(dimethylamino)-3-oxoprop-1-en-1-yl)-2-fluorophenoxy)propanamido)-2-phenylethyl)boronic Acid]
7.31 | 7.47 | 8.70 | N#CC(=Cc1ccc(F)c(OCCC(=O)N[C@@H](Cc2ccccc2)B(O)O)c1)c1ccccn1 [Example 28, (R)-(1-(3-(5-(2-cyano-2-(pyridin-2-yl)vinyl)-2-fluorophenoxy)propanamido)-2-phenylethyl)boronic Acid]
7.77 | 7.44 | 8.22 | COc1ccc(C=C(C#N)c2ccccn2)cc1OCCC(=O)N[C@@H](Cc1ccccc1)B(O)O [Example 29, (R)-(1-(3-(5-(2-cyano-2-(pyridin-2-yl)vinyl)-2-methoxyphenoxy)propanamido)-2-phenylethyl)boronic Acid]
6.82 | 6.92 | 8.40 | N#CC(=Cc1cccc(OCCC(=O)N[C@@H](Cc2ccccc2)B(O)O)c1)C(=O)N1CCC1 [Example 30, (R)-(1-(3-(3-(3-(azetidin-1-yl)-2-cyano-3-oxoprop-1-en-1-yl)phenoxy)propanamido)-2-phenylethyl)boronic Acid]
7.00 | 7.02 | 8.30 | N#CC(=Cc1cccc(OCCC(=O)N[C@@H](Cc2ccccc2)B(O)O)c1)c1ccc(C(F)(F)F)cn1 [Example 33, (R)-(1-(3-(3-(2-cyano-2-(5-(trifluoromethyl)pyridin-2-yl)vinyl)phenoxy)propanamido)-2-phenylethyl)boronic Acid]
6.92 | 7.10 | 8.10 | N#CC(=Cc1cccc(OCCC(=O)N[C@@H](Cc2ccccc2)B(O)O)c1)c1ncccc1F [Example 34, (R)-(1-(3-(3-(2-cyano-2-(3-fluoropyridin-2-yl)vinyl)phenoxy)propanamido)-2-phenylethyl)boronic Acid]
7.13 | 7.15 | 8.07 | N#CC(=Cc1cccc(OCCC(=O)N[C@@H](Cc2ccccc2)B(O)O)c1F)c1ccccn1 [Example 40, (R)-(1-(3-(3-(2-cyano-2-(pyridin-2-yl)vinyl)-2-fluorophenoxy)propanamido)-2-phenylethyl)boronic Acid]
